In patent US20160324770A1, “INTRATHECAL ADMINISTRATION, PREFERABLY INTRAVENTRICULAR, OF MTOR INHIBITORS FOR THE THERAPY OF SOME NEURODEGENERATIVE, NEUROINFLAMMATORY AND NEURO-ONCOLOGIC DISEASES” (priority 2012, published 2016):
Where two headings read alike, the source gives them in different places.

How the values were obtained:
[1] = Blood and brain concentrations (LC-MS) in mice treated intraperitoneally for a week with graduated doses; type: in vivo, CD1 mice; conditions: for concentration at 1 week: CD1, mouse
Method: (§1) A quantitative analysis of everolimus in blood and tissue samples was performed with the isotopic dilution method using the LC-MS technique. The chromatographic system was the following: Agilent 1290 Infinity HPLC equipped with a binary pump and HiP Auto Sampler model G4226A. The injection volume was 2 μL, the analytical column used was a Phenomenex Kinetics PFP UHPLC column (Phenomenex, Milan, Italy) […], 1.7 μm, 100 Å, temperature controlled at 55° C. A gradient elution was performed using as solvent A: water with 5 mM ammonium formiate, solvent B: methanol with 0.1% formic acid. The elution profile was the following: solvent A 30%/solvent B 70% for 3 minutes, solvent A 1%/solvent B 99% from 3 to 6 minutes, at a flow velocity of 0.25 mL/min. This setup enabled an elution time of 2.5 minutes. Every injection was preceded by a cycle of washing the injector system with methanol.
(§2) Mass spectrometry was conducted using a Q-TOF MS detector model G6540A (Agilent, Germany) equipped with a Dual AJS ESI (electrospray ionization interface) system. The instrument parameters were the following: sheath gas flow: […], sheath gas temperature: 300° C., gas flow: 6 L/min, gas temperature: 300° C., nebulizer pressure: 35 psi, ion spray voltage: 5500 V.
(§3) Both everolimus and the isotopic internal standard were detected as ammonium adducts in the positive ion mode.
(§4) Everolimus was extracted from whole blood in 1 mL of a methanol solution containing 10% ammonium acetate in order to enable precipitation of most of the serum protein.
The internal standard used was isotopic 4d-2C^13-everolimus added to the extraction solution at a concentration of 200 ng/mL.
(§5) The blood samples were freeze-dried and subsequently extracted. The extraction process was carried out in a sonication bath for approx. 10 minutes to ensure complete haemolysis and release of the drug from the cell material.
The samples were centrifuged (10 minutes, 4000 rpm, 10° C.) and the supernatant was then separated from the pellet.
The solutions thus obtained were then purified by means of HybridSPE®-Phospholipid solid-phase extraction cartridges with a total volume of 1 ml (Sigma Aldrich, Milan) to eliminate the excess lipid material potentially present. The process was preliminarily validated both for everolimus and for the internal standard in solution and in matrices, providing a yield >98% w/v.
(§6) The process of extraction from brain samples, divided into right and left hemispheres, was similar to the one for whole blood. The tissue samples were weighed and subsequently freeze-dried. After freeze-drying the samples were finely chopped to facilitate subsequent extraction. 1 mL of the methanol solution was then added to 1% v/v of ammonium formiate with 200 ng/mL of internal standard. The samples were then subjected to 10 minutes of sonication and vortexed to ensure complete extraction of the drug. Then followed centrifugation (10 minutes, 4000 rpm, 10° C.) and the supernatant was separated from the pellet. As previously described, the solutions were purified by means of HybridSPE®-Phospholipid solid-phase extraction cartridges with a total volume of 1 ml (Sigma Aldrich, Milan) to eliminate the excess lipid material. The samples were then immediately submitted to LC-MS analysis.

[2] = Blood and brain concentrations and metabolites (LC-MS) after intraventricular (intracerebral) administration by osmotic pump; type: in vivo, mice
Excerpt: (§7) Intraventricular infusion: Under general anaesthesia obtained with Ketamine/Xylazine, Alzet osmotic pumps (http://www.alzet.com/products/guide_to_use/pump_selection.ht ml) were implanted subcutaneously on the back; a catheter leading from the pump reached the cranial vault, where it was connected to a connector (Brain Kit 3, Alzet) stereotaxically implanted in the cranium until reaching the lateral ventricle. These pumps are capable of infusing their content at a constant speed for 1-4 weeks.
as §1, §2, §3, §4, §5, §6
(§8) We then decided to look for the maximum tolerable dose by intraventricular administration of everolimus at concentrations 10 times higher than those shown in Table 1: A=25 mg/Kg, B=12.5 mg/Kg, C=[…].
Though they could not be quantified, the presence of metabolites deriving from the transformation of the drug has been noted in the table.

[3] = mouse, in vivo, 25 mg/kg
Excerpt: as §7, §8
Therefore, that dose was ruled out and the mice were sacrificed. […] For the subsequent assessment of therapeutic effectiveness in the different animal models, dose B (12.5 mg/Kg) was selected.

[4] = Blood and brain concentrations and metabolites (LC-MS) after intraventricular (intracerebral) administration by osmotic pump; type: in vivo; conditions: mice that had received intrathecal treatment
[5] = cited from earlier work
[6] = dose A=25 mg/Kg intraventricular, treated 3 days
[7] = dose B=12.5 mg/Kg intraventricular, treated 14 days
[8] = dose C=6.125 mg/Kg intraventricular, treated 14 days

With `CO[C@H]1C[C@@H]2CC[C@@H](C)[C@@](O)(O2)C(=O)C(=O)N2CCCC[C@H]2C(=O)O[C@H]([C@H](C)C[C@@H]2CC[C@@H](OCCO)[C@H](OC)C2)CC(=O)[C@H](C)/C=C(\C)[C@@H](O)[C@@H](OC)C(=O)[C@H](C)C[C@H](C)/C=C/C=C/C=C/1C` [everolimus] the concentration at 1 week ([1]; brain, intraperitoneal, 0.6125 mg/Kg, heading: Brain conc 1, one week, lowest of 3 dosages (C=0.6125 mg/Kg)) was 46 ng/g, the “Level in the blood” value ([1]; all 3 dosages of the one-week study) was “did not reach measurable levels in the blood” and the concentration at 1 week ([1]; female, brain, left hemisphere (sx), ip, females, 0.6125 mg/kg i.p. for a week, normalized to weight of a hemisphere, read-out: Brain concentration, hemisphere sx (converted)) was 48 ng/g. It also gave a concentration at 1 week ([1]; female, brain, left hemisphere (sx), ip, females, 1.25 mg/kg i.p. for a week, normalized to weight of a hemisphere, read-out: Brain concentration, hemisphere sx (converted)) of 80 ng/g, a concentration at 1 week ([1]; female, brain, left hemisphere (sx), ip, females, 2.5 mg/kg i.p. for a week, normalized to weight of a hemisphere, read-out: Brain concentration, hemisphere sx (converted)) of 152 ng/g and a concentration at 1 week ([1]; female, brain, right hemisphere (dx), ip, females, 0.6125 mg/kg i.p. for a week, normalized to weight of a hemisphere, read-out: Brain concentration, hemisphere dx (converted)) of 44 ng/g. It also gave a concentration at 1 week ([1]; female, brain, right hemisphere (dx), ip, females, 1.25 mg/kg i.p. for a week, normalized to weight of a hemisphere, read-out: Brain concentration, hemisphere dx (converted)) of 72 ng/g, a concentration at 1 week ([1]; female, brain, right hemisphere (dx), ip, females, 2.5 mg/kg i.p. for a week, normalized to weight of a hemisphere, read-out: Brain concentration, hemisphere dx (converted)) of 132 ng/g and a concentration at 1 week ([1]; female, whole blood, ip, females, 0.6125 mg/kg intraperitoneally for a week, n = 2, read-out: Blood concentration) of 15 ± 3 ng/mL. For the same compound, the concentration at 1 week ([1]; female, whole blood, ip, females, 1.25 mg/kg intraperitoneally for a week, n = 2, read-out: Blood concentration) was 25 ± 5 ng/mL, the concentration at 1 week ([1]; female, whole blood, ip, females, 2.5 mg/kg intraperitoneally for a week, n = 2, read-out: Blood concentration) was 46 ± 4 ng/mL and the concentration at 1 week ([1]; male, brain, left hemisphere (sx), ip, males, 0.6125 mg/kg i.p. for a week, normalized to weight of a hemisphere, read-out: Brain concentration, hemisphere sx (converted)) was 36 ng/g. The concentration at 1 week ([1]; male, brain, left hemisphere (sx), ip, males, 1.25 mg/kg i.p. for a week, normalized to weight of a hemisphere, read-out: Brain concentration, hemisphere sx (converted)) was 100 ng/g, the concentration at 1 week ([1]; male, brain, left hemisphere (sx), ip, males, 2.5 mg/kg i.p. for a week, normalized to weight of a hemisphere, read-out: Brain concentration, hemisphere sx (converted)) was 176 ng/g and the concentration at 1 week ([1]; male, brain, right hemisphere (dx), ip, males, 0.6125 mg/kg i.p. for a week, normalized to weight of a hemisphere, read-out: Brain concentration, hemisphere dx (converted)) was 56 ng/g. The concentration at 1 week ([1]; male, brain, right hemisphere (dx), ip, males, 1.25 mg/kg i.p. for a week, normalized to weight of a hemisphere, read-out: Brain concentration, hemisphere dx (converted)) was 148 ng/g, the concentration at 1 week ([1]; male, brain, right hemisphere (dx), ip, males, 2.5 mg/kg i.p. for a week, normalized to weight of a hemisphere, read-out: Brain concentration, hemisphere dx (converted)) was 208 ng/g and the concentration at 1 week ([1]; male, whole blood, ip, males, 0.6125 mg/kg intraperitoneally for a week, n = 2, read-out: Blood concentration) was 16 ± 4 ng/mL. For the same compound, the concentration at 1 week ([1]; male, whole blood, ip, males, 1.25 mg/kg intraperitoneally for a week, n = 2, read-out: Blood concentration) was 42 ± 4 ng/mL, the concentration at 1 week ([1]; male, whole blood, ip, males, 2.5 mg/kg intraperitoneally for a week, n = 2, read-out: Blood concentration) was 59 ± 3 ng/mL and the “Blood concentration (LC-MS)” value ([1]; mice treated with intraperitoneal administration) was “in the therapeutic range”. The Metabolites ([2]; dose A, brain field T8 dx) was “No metabolites”, the Metabolites ([2]; dose A, brain field T9 sx) was “No metabolites” and the “Brain Conc” value [2, 6] was 20.4 ng/g. For the same compound, the “Conc/250 mg brain, Left hemisphere” value [2, 6] was 4.9 ± 2.3 /250 mg brain, the “Conc/250 mg brain, Right hemisphere” value [2, 6] was 5.3 ± 2.8 /250 mg brain and the Metabolites ([2]; dose B, brain field T5- dx) was “No metabolites”. The Metabolites ([2]; dose B, brain field T6 sx) was “No metabolites”, the “Brain Conc” value [2, 7] was 12 to 16 ng/g and the “Conc/250 mg brain, Left hemisphere” value [2, 7] was 2.91 ± 0.8 /250 mg brain. For the same compound, the “Conc/250 mg brain, Right hemisphere” value [2, 7] was 3.1 ± 1.6 /250 mg brain, the Metabolites ([2]; dose C, brain field T1- dx) was “No metabolites” and the Metabolites ([2]; dose C, brain field T1- sx) was “No metabolites”. For the same compound, the Metabolites ([2]; dose C, brain field T2- dx) was “No metabolites”, the Metabolites ([2]; dose C, brain field T2- sx) was “No metabolites” and the “Brain Conc” value [2, 8] was 11.8 ng/g. The “Conc/250 mg brain, Left hemisphere” value [2, 8] was 2.5 ± 0.2 /250 mg brain, the “Conc/250 mg brain, Right hemisphere” value [2, 8] was 3.4 ± 0.7 /250 mg brain and the concentration at 3 days ([2]; mouse, whole blood, other: intraventricular infusion by osmotic pump, dose A=25 mg/Kg intraventricular, treated 3 days, read-out: Conc, Blood) was < 1000 ng/g. The concentration at 14 days ([2]; mouse, whole blood, other: intraventricular infusion by osmotic pump, dose B=12.5 mg/Kg intraventricular, treated 14 days, read-out: Conc, Blood) was < 1000 ng/g, the concentration at 14 days ([2]; mouse, whole blood, other: intraventricular infusion by osmotic pump, dose C=6.125 mg/Kg intraventricular, treated 14 days, read-out: Conc, Blood) was < 1000 ng/g and the Tolerability observations [3] was “reduction in spontaneous motility and a very slight weight reduction”. The “Blood concentration (detectable only in traces)” value [4] was < 1 mg/kg and the half-life [5] was 28 to 32 h.
